Assay results reported in publication PMC9312114, “Synthesis and Evaluation of Novel DNA Minor Groove Binders as Antiamoebic Agents” (Antibiotics, 2022).
Values after ≈ are worked out from the molar mass of the structure shown.

Legend:
[1] = test system: Acanthamoeba castellanii cysts; assay: Excystation assay; format: cell-based; conditions: cysts in PYG, negative control 100%, read-out: viable trophozoites (re-emergence of cysts to trophozoites)
Description: Amoeba culture was suspended in 3 mL phosphate-buffered saline (PBS) and placed on non-nutrient bacteriological agar plates to allow for the growing of Acanthamoeba castellanii cysts. After two weeks, PBS was applied to plates containing amoeba cysts, which were then scraped off. The amoebae were centrifuged at 3000× g for 10 min, and the resulting pellet was resuspended in RPMI. The 5 × 10^5 cysts were then incubated in PYG, along with 50 µM of the compounds. To ensure accuracy, amoeba cysts in PYG alone were considered as the negative control, whereas amoeba cysts in RPMI alone were taken as the positive control, as the cysts would not be able to revert back to trophozoites. The amoeba trophozoites were then numbered by using a haemocytometer.

HeLa cells = assay: Cytotoxicity assay (LDH release); format: cell-based, human; conditions: for cytotoxicity against human HeLa cells: 50 µM, 24 h, LDH release, Triton X-100 = 100%
Description: HeLa cells were acquired from American Type Culture Collection (ATCC) of identification ATCC CCL-2, Singapore. The cells are utilized to conduct cytotoxicity and cytopathogenicity assays. Through their cultivation in complete media, the cells were grown, and then they were placed in a 95% humidifying incubator at 37 °C and 5% CO2. Complete medium comprises Roswell Park Memorial Media (RPMI), 1% penicillin–streptomycin, 1% minimum essential medium amino acids, 1% L-glutamine, and 10% fetal bovine serum (FBS). To determine the toxicity of the compounds against human HeLa cells, cytotoxicity assays were conducted. In short, HeLa cells were cultured in 96-well plates and treated with the compounds. The plate was then placed in a humidifying incubator with 95% humidity and 5% CO2, at 37 °C, for 24 h. After 24 h, the supernatant was collected, and the cytotoxicity of the compounds was determined through a cytotoxicity detection kit that measured the quantity of lactate dehydrogenase (LDH) release. Accurate results were ensured through the addition of positive and negative controls. Untreated HeLa cells served as the negative control, whereas HeLa cells treated with 1% Triton X-100 served as the positive control. Finally, the cytotoxic properties were numerically determined by following the necessary calculations: (absorbance of media from cells treated with the drugs—absorbance of media from cells of negative control)/(absorbance of media from cells of positive control—absorbance of media from cells of negative control) × 100 [19].

Acanthamoeba castellanii [2] = assay: Amoebicidal assay; format: cell-based, Acanthamoeba castellanii genotype T4 (ATCC 50492); conditions: for viability at 50 µM / MIC50: Acanthamoeba castellanii; for viability at 50 µM: 24 h, negative control 100%, read-out: amoeba viability; for MIC50: read-out: MIC50 (minimum inhibitory concentration required to inhibit 50% of amoeba growth); for A. castellanii, 25 µM: Table 2, 25 µM; for A. castellanii, 25 µM / A. castellanii, 75 µM / A. castellanii, 100 µM: amoeba alone 100; for A. castellanii, 75 µM: Table 2, 75 µM; for A. castellanii, 100 µM: Table 2, 100 µM
Description: Acanthamoeba castellanii genotype T4 (ATCC 50492) was cultivated in 10 mL growth medium of peptone yeast glucose (PYG) in tissue flasks (Baig, et al., 2021; Anwar, et al., 2019). The growth medium, PYG, consists of 0.75% proteose peptone, 0.75% yeast extract, and 1.5% glucose. Next, the amoebae were kept in tissue flasks and incubated at 30 °C.
To determine the compounds’ antiamoebic effects, amoebicidal assays were conducted. The 5 × 10^5 amoebae were placed in a 24-well plate and brought to a final volume of 500 µL. […] The 24-well plate was then placed in a 30 °C incubator for 24 h. Positive and negative controls were added to the assay in order to ensure reliable results. Serving as the negative control was the amoebae alone, with RPMI [4]. Meanwhile, amoebae, along with 0.25% sodium dodecyl sulphate (SDS), were used as the positive control. Through the addition of 0.1% methylene blue, live and dead amoebae were distinguished. Additionally, significant compounds were identified by conducting a Student’s t-test with a two-tailed distribution. Furthermore, the MIC50 values of three compounds were determined by using concentrations of […], 75, and 100 µM.

Acanthamoeba castellanii [3] = assay: Encystation assay; format: cell-based; conditions: 16% glucose, 48 h, negative control 100% cysts
Description: The effects of the compounds on amoeba encystation were determined through the conduction of encystation assays. Briefly, 1 × 10^6 trophozoites were incubated with the compounds in a final concentration of 16% filter-sterilized glucose. Following a 48 h incubation period, 0.1% SDS was added per well for 20 min. The cysts were then counted by using a haemocytometer. To ensure accuracy, Acanthamoeba castellanii was cultured in 16% glucose, serving as the negative control.

[4] = test system: Acanthamoeba castellanii on HeLa cell monolayers; assay: Cytopathogenicity assay (amoeba-mediated host-cell death); format: cell-based; conditions: amoebae pretreated with 50 µM for 2 h, then 24 h on HeLa cells, negative control 100%
Description: Amoeba-mediated host-cell death was determined by treating 5 × 10^5 amoebae with 50 µM of compounds. The amoeba-containing plate was then placed in the incubator for 2 h at 30 °C. Following the 2 h incubation period, the treated amoebae were put on confluent HeLa cell monolayers. The plate containing the treated amoebae and HeLa cells was incubated for 24 h. Progressing the incubation period, the supernatant was collected, and the cytotoxicity was determined. Accurate results were ensured through the addition of negative and positive controls. The untreated amoebae, alone, on the cells served as the negative control, while the cells treated with Triton X-100 served as the positive control.

[5] = set-up: method as in PMID 35600289; conditions: cited from earlier work
[6] = set-up: method as in PMID 35600289; conditions: pH of 7; cited from earlier work
[7] = test system: Acanthamoeba cysts and trophozoites; set-up: method as in PMID 9736540; conditions: 0.5 to 2.5% solution; cited from earlier work

With `CN(C)CCCNC(=O)c1cc(NC(=O)c2cc(NC(=O)c3ccc(/C=C/c4ccccc4)cc3)cn2C)cn1C` [MGB30, (E)-N-(3-(dimethylamino)propyl)-1-methyl-4-(1-methyl-4-(4-styrylbenzamido)-1H-pyrrole-2-carboxamido)-1H-pyrrole-2-carboxamide] the viability at 50 µM [1] was 78.1%, the “cytotoxicity against human HeLa cells” value (HeLa cells) was 34% and the viability at 50 µM (Acanthamoeba castellanii [2]) was 63.4%. For the same molecule, the cysts present (Acanthamoeba castellanii [3]) was 27.8% and the “amoeba-mediated host-cell death (cytotoxic activity due to amoeba)” value (“amoeba-mediated host-cell death” for short) [4] was 87.3%.
For `Cn1cc(NC(=O)c2cc(NC(=O)c3ccc(/C=C/c4ccccc4)cc3)cn2C)cc1C(=O)NCCCN1CCOCC1` [MGB32, (E)-1-methyl-4-(1-methyl-4-(4-styrylbenzamido)-1H-pyrrole-2-carboxamido)-N-(3-morpholinopropyl)-1H-pyrrole-2-carboxamide], the viability at 50 µM [1] was 62.1%, the “cytotoxicity against human HeLa cells” value (HeLa cells) was 22.4% and the viability at 50 µM (Acanthamoeba castellanii [2]) was 80.1%. For the same molecule, the cysts present (Acanthamoeba castellanii [3]) was 41.5% and the “amoeba-mediated host-cell death” value [4] was 96.3%.
For `Cn1cc(NC(=O)c2cc(NC(=O)c3ccc(/C=C/c4cnc5ccccc5c4)cc3)cn2C)cc1C(=O)NCCN1CCOCC1` [MGB-BP-3], the pKa [5] is listed as 5.26 and the solubility in water [6] is listed as “insoluble in water”.
With `Cn1cc(NC(=O)c2cc(NC(=O)c3ccc(C#Cc4ccccc4)cc3)cn2C)cc1C(=O)NCCCN1CCOCC1` [MGB28, 1-methyl-4-(1-methyl-4-(4-(phenylethynyl)benzamido)-1H-pyrrole-2-carboxamido)-N-(3-morpholinopropyl)-1H-pyrrole-2-carboxamide] the viability at 50 µM [1] was 40.6%, the “cytotoxicity against human HeLa cells” value (HeLa cells) was 13.7% and the viability at 50 µM (Acanthamoeba castellanii [2]) was 97.2%. For the same molecule, the cysts present (Acanthamoeba castellanii [3]) was 29.6% and the “amoeba-mediated host-cell death” value [4] was 91.9%.
With `CC(C)c1sc(NC(=O)c2cc(NC(=O)c3cc(NC(=O)c4nccn4C)cn3C)cn2C)nc1C(=O)NCCCN(C)C` [MGB3, N-(3-(dimethylamino)propyl)-5-isopropyl-2-(1-methyl-4-(1-methyl-4-(1-methyl-1H-imidazole-2-carboxamido)-1H-pyrrole-2-carboxamido)-1H-pyrrole-2-carboxamido)thiazole-4-carboxamide] the viability at 50 µM [1] was 64.3%, the “cytotoxicity against human HeLa cells” value (HeLa cells) was 16.2% and the MIC50 (Acanthamoeba castellanii [2]) was 65.9 µM (≈ 41 µg/mL). For the same molecule, the viability at 50 µM (Acanthamoeba castellanii [2]) was 76.2%, the “A. castellanii, 25 µM” value (Acanthamoeba castellanii [2]) was 43.7 ± 3.8 and the “A. castellanii, 75 µM” value (Acanthamoeba castellanii [2]) was 51 ± 4.7. The “A. castellanii, 100 µM” value (Acanthamoeba castellanii [2]) was 46 ± 4.8, the cysts present (Acanthamoeba castellanii [3]) was 83.5% and the “amoeba-mediated host-cell death” value [4] was 41.5%.
For `Cc1ccc(CSCCC(=O)Nc2cc(C(=O)Nc3cc(C(=O)NCCCN(C)C)n(C)c3)n(C)c2)cc1` [MGB22, N-(3-(dimethylamino)propyl)-1-methyl-4-(1-methyl-4-(3-((4-methylbenzyl)thio)propanamido)-1H-pyrrole-2-carboxamido)-1H-pyrrole-2-carboxamide], the viability at 50 µM [1] was 52.9%, the “cytotoxicity against human HeLa cells” value (HeLa cells) was 33.7% and the viability at 50 µM (Acanthamoeba castellanii [2]) was 66.5%. For the same molecule, the cysts present (Acanthamoeba castellanii [3]) was 30.3% and the “amoeba-mediated host-cell death” value [4] was 71.5%.
In the case of `CN(C)CCCNC(=O)c1cc(NC(=O)c2cc(NC(=O)c3ccc(C#Cc4ccccc4)cc3)cn2C)cn1C` [MGB26, N-(3-(dimethylamino)propyl)-1-methyl-4-(1-methyl-4-(4(phenylethynyl)benzamido)-1H-pyrrole-2-carboxamido)-1H-pyrrole-2-carboxamide], the viability at 50 µM [1] is reported as 79.1%, the “cytotoxicity against human HeLa cells” value (HeLa cells) is reported as 33.5% and the viability at 50 µM (Acanthamoeba castellanii [2]) is reported as 82.7%. For the same molecule, the cysts present (Acanthamoeba castellanii [3]) was 52.3% and the “amoeba-mediated host-cell death” value [4] was 67.3%.
In the case of `CC(C)c1sc(NC(=O)c2cc(NC(=O)c3cc(NC(=O)c4cscn4)cn3C)cn2C)nc1C(=O)NCCCN(C)C` [MGB4, N-(3-(dimethylamino)propyl)-5-isopropyl-2-(1-methyl-4-(1-methyl-4-(thiazole-4-carboxamido)-1H-pyrrole-2-carboxamido)-1H-pyrrole-2-carboxamido)thiazole-4-carboxamide], the viability at 50 µM [1] is reported as 47.3%, the “cytotoxicity against human HeLa cells” value (HeLa cells) is reported as 18.4% and the viability at 50 µM (Acanthamoeba castellanii [2]) is reported as 95.2%. The cysts present (Acanthamoeba castellanii [3]) was 82.3% and the “amoeba-mediated host-cell death” value [4] was 49.4%.
In the case of `Cn1cc(NC(=O)c2cc(NC(=O)CCSc3ccc4ccccc4c3)cn2C)cc1C(=O)NCCCN1CCOCC1` [MGB20, 1-methyl-4-(1-methyl-4-(3-(naphthalen-2-ylthio)propanamido)-1H-pyrrole-2-carboxamido)-N-(3-morpholinopropyl)-1H-pyrrole-2-carboxamide], the viability at 50 µM [1] is reported as 96%, the “cytotoxicity against human HeLa cells” value (HeLa cells) is reported as 31.4% and the MIC50 (Acanthamoeba castellanii [2]) is reported as 83.6 µM (≈ 50.4 µg/mL). For the same molecule, the viability at 50 µM (Acanthamoeba castellanii [2]) was 81.9%, the “A. castellanii, 25 µM” value (Acanthamoeba castellanii [2]) was 64 ± 3.2 and the “A. castellanii, 75 µM” value (Acanthamoeba castellanii [2]) was 54.6 ± 5.8. The “A. castellanii, 100 µM” value (Acanthamoeba castellanii [2]) was 48 ± 1.1, the cysts present (Acanthamoeba castellanii [3]) was 39% and the “amoeba-mediated host-cell death” value [4] was 83.2%.
For povidone-iodine, the antiamoebic activity [7] is given as “good amount of antiamoebic activity”.
In the case of Triton X-100 [reference compound], the “toxic activity (positive control)” value (HeLa cells) is reported as 100%.
In the case of `Cn1cc(NC(=O)c2cc(NC(=O)c3cc4ccccc4oc3=O)cn2C)cc1C(=O)NCCCN1CCOCC1` [MGB16, 1-methyl-N-(1-methyl-5-{[3-(morpholin-4-yl)propyl]carbamoyl}-1H-pyrrol-3-yl)-4-(2-oxo-2H-chromene-3-amido)-1H-pyrrole-2-carboxamide], the viability at 50 µM [1] is reported as 51.7%, the “cytotoxicity against human HeLa cells” value (HeLa cells) is reported as 12.7% and the viability at 50 µM (Acanthamoeba castellanii [2]) is reported as 43.2%. The cysts present (Acanthamoeba castellanii [3]) was 45.6% and the “amoeba-mediated host-cell death” value [4] was 88.6%.
With `CN(C)CCCNC(=O)c1cc(NC(=O)c2cc(NC(=O)c3cc(NC(=O)c4cscn4)cn3C)cn2C)cn1C` [MGB6, N-(5-((5-((5-((3-(dimethylamino)propyl]carbamoyl)-1-methyl-1H-pyrrol-3-yl)carbamoyl)-1-methyl-1H-pyrrol-3-yl}carbamoyl)-1-methyl-1H-pyrrol-3-yl)-1,3-thiazole-4-carboxamide] the viability at 50 µM [1] was 41.4%, the “cytotoxicity against human HeLa cells” value (HeLa cells) was 14.4% and the MIC50 (Acanthamoeba castellanii [2]) was 58.3 µM (≈ 33.8 µg/mL). The viability at 50 µM (Acanthamoeba castellanii [2]) was 59.5%, the “A. castellanii, 25 µM” value (Acanthamoeba castellanii [2]) was 57 ± 2.4 and the “A. castellanii, 75 µM” value (Acanthamoeba castellanii [2]) was 48 ± 5.5. For the same molecule, the “A. castellanii, 100 µM” value (Acanthamoeba castellanii [2]) was 45 ± 1.4, the cysts present (Acanthamoeba castellanii [3]) was 46.3% and the “amoeba-mediated host-cell death” value [4] was 49.5%.
